Tests used:
[1] = system: control sera (pooled serum of ten healthy LUMC hospital workers; commercial negative donor pooled serum from the Dutch bloodbank); type: binding, human; design: Binding of Control serum LUMC to linear peptides / Binding of Control serum Blood-bank to linear peptides / Binding of Control serum LUMC to looped peptides / Binding of Control Serum Blood-Bank to Looped peptides / Binding of Control serum LUMC to linear peptides of the protein M of SARS-CoV Urbani / Binding of Control serum Blood-bank to linear peptides of the protein M of SARS-CoV Urbani / Binding of Control serum LUMC to looped peptides of the protein M of SARS-CoV Urbani / Binding of Control Serum Blood-Bank to Looped peptides of the protein M of SARS-CoV Urbani: unit not given here
[2] = system: rabbit serum obtained by immunizing a rabbit with the SARS-CoV strain Frankfurt 1; type: binding; design: Binding of a rabbit serum to linear peptides / Binding of a rabbit serum to looped peptides / Rabbit serum linear peptides / Rabbit serum looped peptides / Binding of a rabbit serum to linear peptides of protein N of SARS-CoV Urbani (Rabbit serum linear peptides) / Binding of a rabbit serum to looped/cyclic peptides of protein N of SARS-CoV Urbani (Rabbit serum looped peptides): unit not given here

Sequence | Binding of Control Serum Blood-Bank to Looped peptides [1] | Binding of Control serum Blood-bank to linear peptides [1] | Binding of Control serum LUMC to linear peptides [1] | Binding of Control serum LUMC to looped peptides [1] | Binding of a rabbit serum to linear peptides [2] | Binding of a rabbit serum to looped peptides [2] | Binding of Control Serum Blood-Bank to Looped peptides of the protein M of SARS-CoV Urbani [1] | Binding of Control serum Blood-bank to linear peptides of the protein M of SARS-CoV Urbani [1] | Binding of Control serum LUMC to linear peptides of the protein M of SARS-CoV Urbani [1] | Binding of Control serum LUMC to looped peptides of the protein M of SARS-CoV Urbani [1] | Rabbit serum linear peptides [2] | Rabbit serum looped peptides [2] | Binding of Control Serum Blood-Bank to Looped peptides of the protein X3 of SARS-CoV Urbani [1] | Binding of Control serum Blood-bank to linear peptides of the protein X3 of SARS-CoV Urbani [1] | Binding of Control serum LUMC to linear peptides of the protein X3 of SARS-CoV Urbani [1] | Binding of Control serum LUMC to looped peptides of the protein X3 of SARS-CoV Urbani [1] | Recognition of the peptide by the rabbit serum [2]
TAQPVKIDNASPAST | 0.5 | 0.7 | 0.6 | 0.6 | 0.1 | 0.4 |  |  |  |  |  |  |  |  |  |  | 
TGGIAIAMACIVGLM |  |  |  |  |  |  | 1.1 | 1.1 | 0.6 | 1.1 | 0.5 | 0.3 |  |  |  |  | 
THNYDYCIPYNSVTD | 0.7 | 0.5 | 0.6 | 0.7 | 0.1 | 0.6 |  |  |  |  |  |  |  |  |  |  | 
TKKNYSELDDEEPME |  |  |  |  |  |  |  |  |  |  | 0.2 | 0.1 | 0.4 | 0.8 | 0.4 | 0.9 | 
TKLVVILRIGTQVLK | 0.6 | 0.7 | 0.5 | 0.7 | 0.3 | 0.6 |  |  |  |  |  |  |  |  |  |  | 
TPKLKEDYQIGGYSE | 0.7 | 0.5 | 0.6 | 0.9 | 0.1 | 1.2 |  |  |  |  |  |  |  |  |  |  | 
TQVLKTMSLYMAISP | 0.7 | 0.7 | 0.7 | 0.8 | 0.1 | 0.4 |  |  |  |  |  |  |  |  |  |  | 
TTKLVVILRIGTQVL | 0.6 | 0.3 | 0.3 | 0.7 |  |  |  |  |  |  |  |  |  |  |  |  | recognized
TVYVYSRVKNLNSSE | 0.7 | 0.5 | 0.3 | 0.9 | 0.8 | 0.3 |  |  |  |  |  |  |  |  |  |  | 
VANPAMDPIYDEPTT | 0.5 | 0.4 | 0.2 | 0.5 | 0.1 | 0.5 |  |  |  |  |  |  |  |  |  |  | 
VCWHTHNYDYCIPYN | 0.7 | 0.7 | 0.8 | 0.6 | 0.1 | 0.6 |  |  |  |  |  |  |  |  |  |  | 
VIISSIVRQLFKPLT |  |  |  |  |  |  |  |  |  |  | 0.5 | 0.3 | 0.7 | 0.8 | 0.7 | 0.8 | 
VKNLNSSEGVPDLLV | 0.8 | 0.7 | 1.1 | 0.9 | 0.3 | 0.6 |  |  |  |  |  |  |  |  |  |  | 
VKPTVYVYSRVKNLN | 0.8 | 0.8 | 0.4 | 0.8 | 0.5 | 0.7 |  |  |  |  |  |  |  |  |  |  | 
VNVSLVKPTVYVYSR | 0.6 | 0.6 | 0.8 | 0.8 | 0.4 | 0.6 |  |  |  |  |  |  |  |  |  |  | 
VSLVKPTVYVYSRVK | 0.6 | 0.9 | 0.6 | 0.9 | 1.5 | 2.0 |  |  |  |  |  |  |  |  |  |  | 
VYSRVKNLNSSEGVP | 1.0 | 0.9 | 0.6 | 0.7 | 0.7 | 0.0 |  |  |  |  |  |  |  |  |  |  | 
VYVYSRVKNLNSSEG | 0.8 | 0.5 | 0.8 | 0.8 | 0.3 | 0.4 |  |  |  |  |  |  |  |  |  |  | 
WHTHNYDYCIPYNSV | 0.7 | 0.7 | 0.8 | 0.9 | 0.1 | 0.6 |  |  |  |  |  |  |  |  |  |  | 
WHTMVQTCTPNVTIN | 0.5 | 1.0 | 0.5 | 0.4 |  |  |  |  |  |  | 0.5 | 0.0 |  |  |  |  | 
YCCNIVNVSLVKPTV | 0.7 | 0.9 | 0.6 | 0.6 | 0.7 | 0.3 |  |  |  |  |  |  |  |  |  |  | 
YCIPYNSVTDTIVVT | 0.7 | 0.8 | 0.7 | 0.7 | 0.1 | 0.5 |  |  |  |  |  |  |  |  |  |  | 
YDYCIPYNSVTDTIV | 0.5 | 0.6 | 0.7 | 0.6 | 0.1 | 0.5 |  |  |  |  |  |  |  |  |  |  | 
YFVCWHTHNYDYCIP | 0.6 | 0.6 | 0.7 | 0.6 | 0.1 | 0.6 |  |  |  |  |  |  |  |  |  |  | 

Reference: patent US20070128217A1 (priority 2003, published 2007)
